This note sets out measurements from patent publication US20090311217A1, “3-SUBSTITUTED-1H-INDOLE COMPOUNDS, THEIR USE AS MTOR KINASE AND PI3 KINASE INHIBITORS, AND THEIR SYNTHESES” (priority 2008, published 2009).

A value given as a limit tells only on which side of the number the result lay.

Assay type in all cases: biochemical
One assay has as its target PI3K-gamma (Homo sapiens, UniProt P48736). In words: PI3K-gamma fluorescence polarization assay. Conditions: PI3Kγ Avg. IC50. The essentials:
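Inhibition is derived from a polarization signal: after a 1 h, 25° C kinase step (25 μM ATP, 2.5 μM diC8-PIP2, pH 7), EDTA stops the reaction and the GRP1 PH domain/TMR-IP4 pair reports lipid product.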

The next assay concerns the target PI3K-alpha (Homo sapiens, UniProt P42336). Put plainly: PI3K-alpha fluorescence polarization assay. Conditions: read-out: PI3Kα Avg. IC50.
The target of another assay is T1, human TOR (Homo sapiens, UniProt P42345).
T1 construct: FLAG
In words: mTOR enzyme assay (DELFIA, His6-S6K substrate). Conditions: read-out: mTOR Kinase Avg. IC50.

Chain of PI3K-alpha (P42336 whole entry, species assumed): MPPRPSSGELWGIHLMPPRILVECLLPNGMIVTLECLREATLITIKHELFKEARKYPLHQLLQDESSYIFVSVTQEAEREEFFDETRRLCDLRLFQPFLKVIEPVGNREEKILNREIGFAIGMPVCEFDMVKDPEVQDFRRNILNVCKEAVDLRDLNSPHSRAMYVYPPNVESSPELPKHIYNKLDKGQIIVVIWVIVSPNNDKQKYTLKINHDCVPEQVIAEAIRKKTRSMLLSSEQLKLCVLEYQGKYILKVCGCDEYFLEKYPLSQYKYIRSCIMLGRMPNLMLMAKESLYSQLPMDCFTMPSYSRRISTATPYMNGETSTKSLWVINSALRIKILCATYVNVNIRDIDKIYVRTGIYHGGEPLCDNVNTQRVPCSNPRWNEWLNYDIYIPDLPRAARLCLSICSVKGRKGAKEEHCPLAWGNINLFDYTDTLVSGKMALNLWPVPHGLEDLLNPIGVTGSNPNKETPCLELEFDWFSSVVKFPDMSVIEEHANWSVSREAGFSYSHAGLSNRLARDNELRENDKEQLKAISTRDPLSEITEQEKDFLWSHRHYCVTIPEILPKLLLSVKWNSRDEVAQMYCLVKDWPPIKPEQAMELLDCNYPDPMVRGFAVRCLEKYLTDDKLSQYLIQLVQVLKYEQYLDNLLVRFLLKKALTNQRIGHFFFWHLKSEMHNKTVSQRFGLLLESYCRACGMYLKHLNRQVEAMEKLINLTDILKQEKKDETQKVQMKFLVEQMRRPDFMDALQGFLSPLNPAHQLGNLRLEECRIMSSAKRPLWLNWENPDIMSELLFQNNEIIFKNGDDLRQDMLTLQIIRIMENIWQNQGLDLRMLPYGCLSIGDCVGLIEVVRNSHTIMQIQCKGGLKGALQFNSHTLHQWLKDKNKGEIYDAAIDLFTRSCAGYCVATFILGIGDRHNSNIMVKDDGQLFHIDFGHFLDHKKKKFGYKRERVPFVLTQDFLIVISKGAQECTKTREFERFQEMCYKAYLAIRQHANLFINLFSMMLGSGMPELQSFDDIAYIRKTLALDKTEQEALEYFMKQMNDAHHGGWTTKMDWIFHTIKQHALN
Chain of PI3K-alpha (P27986 whole entry partner, species assumed): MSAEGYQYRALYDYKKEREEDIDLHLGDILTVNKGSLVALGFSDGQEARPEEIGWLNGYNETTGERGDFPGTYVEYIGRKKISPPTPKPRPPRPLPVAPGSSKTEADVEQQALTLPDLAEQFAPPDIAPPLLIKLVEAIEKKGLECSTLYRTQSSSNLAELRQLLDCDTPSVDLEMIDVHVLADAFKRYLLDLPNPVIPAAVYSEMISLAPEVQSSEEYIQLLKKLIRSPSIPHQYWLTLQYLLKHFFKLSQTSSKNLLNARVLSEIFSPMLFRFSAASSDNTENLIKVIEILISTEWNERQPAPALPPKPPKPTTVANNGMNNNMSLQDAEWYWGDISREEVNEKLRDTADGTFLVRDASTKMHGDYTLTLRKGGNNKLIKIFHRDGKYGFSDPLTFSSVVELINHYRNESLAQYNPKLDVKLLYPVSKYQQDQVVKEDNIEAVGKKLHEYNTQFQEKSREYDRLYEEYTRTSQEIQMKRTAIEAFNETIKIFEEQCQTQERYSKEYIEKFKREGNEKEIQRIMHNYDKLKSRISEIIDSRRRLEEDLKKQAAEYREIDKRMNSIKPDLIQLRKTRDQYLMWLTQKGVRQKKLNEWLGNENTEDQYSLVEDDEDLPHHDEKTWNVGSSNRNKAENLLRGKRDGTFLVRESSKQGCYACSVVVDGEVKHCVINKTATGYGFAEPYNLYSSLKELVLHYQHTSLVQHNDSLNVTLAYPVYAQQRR
Chain of PI3K-gamma (P48736 whole entry, species assumed, the tested form may be a part): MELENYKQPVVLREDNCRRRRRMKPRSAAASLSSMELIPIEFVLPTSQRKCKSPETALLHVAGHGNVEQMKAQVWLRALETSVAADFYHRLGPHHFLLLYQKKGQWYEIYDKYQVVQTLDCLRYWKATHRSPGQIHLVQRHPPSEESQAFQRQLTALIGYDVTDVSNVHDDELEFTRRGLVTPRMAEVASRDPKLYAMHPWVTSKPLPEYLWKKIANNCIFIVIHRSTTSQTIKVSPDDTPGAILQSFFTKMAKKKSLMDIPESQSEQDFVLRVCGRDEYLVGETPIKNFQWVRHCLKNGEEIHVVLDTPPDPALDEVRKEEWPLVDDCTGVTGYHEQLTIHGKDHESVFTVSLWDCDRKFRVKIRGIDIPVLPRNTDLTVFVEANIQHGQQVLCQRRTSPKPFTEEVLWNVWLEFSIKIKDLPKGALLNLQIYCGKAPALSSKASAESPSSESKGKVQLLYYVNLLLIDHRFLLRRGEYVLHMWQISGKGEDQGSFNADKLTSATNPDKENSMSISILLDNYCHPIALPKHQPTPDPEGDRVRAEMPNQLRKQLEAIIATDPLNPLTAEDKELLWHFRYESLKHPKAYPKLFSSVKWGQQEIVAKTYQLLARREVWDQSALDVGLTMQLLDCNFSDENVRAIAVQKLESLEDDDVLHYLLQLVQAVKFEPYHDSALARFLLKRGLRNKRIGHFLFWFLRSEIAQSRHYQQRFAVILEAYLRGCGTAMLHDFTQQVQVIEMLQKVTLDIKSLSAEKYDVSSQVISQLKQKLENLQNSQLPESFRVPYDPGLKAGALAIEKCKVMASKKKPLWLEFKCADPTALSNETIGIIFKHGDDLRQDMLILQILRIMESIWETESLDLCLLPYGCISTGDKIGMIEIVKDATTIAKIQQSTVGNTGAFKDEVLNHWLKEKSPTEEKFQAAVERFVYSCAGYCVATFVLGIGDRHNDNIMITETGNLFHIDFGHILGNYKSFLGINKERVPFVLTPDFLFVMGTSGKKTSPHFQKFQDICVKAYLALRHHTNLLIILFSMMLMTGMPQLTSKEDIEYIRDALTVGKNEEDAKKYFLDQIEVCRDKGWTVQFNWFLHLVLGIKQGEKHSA

Turning to `COc1ccc2[nH]c(-c3c(C)nn(C)c3C)c(/C=C3\Oc4ccc(NC(=O)Nc5ccc(C(=O)N(C)C)cc5)cc4C3=O)c2c1` [Compound 704, 4-({[(2Z)-2-{[5-methoxy-2-(1,3,5-trimethyl-1H-pyrazol-4-yl)-1H-indol-3-yl]methylidene}-3-oxo-2,3-dihydro-1-benzofuran-5-yl]carbamoyl}amino)-N,N-dimethylbenzamide], the 50% inhibitory concentration (IC50) against PI3K-gamma was 4 nM; on PI3K-alpha, 0.6 nM; at human TOR, 4 nM.
Regarding `CNC(=O)Nc1ccc2c(c1)C(=O)/C(=C/c1c(-c3c(C)nn(CCN(C)C)c3C)[nH]c3ccc(OC)cc13)O2` [Compound 705, 1-{(2Z)-2-[(2-{1-[2-(dimethylamino)ethyl]-3,5-dimethyl-1H-pyrazol-4-yl}-5-methoxy-1H-indol-3-yl)methylidene]-3-oxo-2,3-dihydro-1-benzofuran-5-yl}-3-methylurea], the IC50 worked out at 25.5 nM on PI3K-gamma, 5.5 nM on PI3K-alpha and 26 nM at human TOR.
The matching figures for `CNC(=O)Nc1ccc2c(c1)C(=O)/C(=C/c1c(-c3cnn(CC(C)C)c3)[nH]c3ccc(OC)cc13)O2` [Compound 706, 1-[(2Z)-2-({5-methoxy-2-[1-(2-methylpropyl)-1H-pyrazol-4-yl]-1H-indol-3-yl}methylidene)-3-oxo-2,3-dihydro-1-benzofuran-5-yl]-3-methylurea]: 10 nM, 1.3 nM and 10 nM.
The matching figures for `COc1ccc2[nH]c(-c3c(C)nn(C)c3C)c(/C=C3\Oc4ccc(NC(=O)Nc5cccc(C(=O)N(C)CCN(C)C)c5)cc4C3=O)c2c1` [Compound 707, N-[2-(dimethylamino)ethyl]-3-({[(2Z)-2-{[5-methoxy-2-(1,3,5-trimethyl-1H-pyrazol-4-yl)-1H-indol-3-yl]methylidene}-3-oxo-2,3-dihydro-1-benzofuran-5-yl]carbamoyl}amino)-N-methylbenzamide]: 123 nM, 8 nM and 85 nM.
The matching figures for `COc1ccc2[nH]c(-c3c(C)nn(C)c3C)c(/C=C3\Oc4ccc(NC(=O)Nc5cccc(C(=O)N(C)CCCN(C)C)c5)cc4C3=O)c2c1` [Compound 708, N-[3-(dimethylamino)propyl]-3-({[(2Z)-2-{[5-methoxy-2-(1,3,5-trimethyl-1H-pyrazol-4-yl)-1H-indol-3-yl]methylidene}-3-oxo-2,3-dihydro-1-benzofuran-5-yl]carbamoyl}amino)-N-methylbenzamide]: 351 nM, 42 nM and 115 nM.
For the molecule `CNC(=O)Nc1ccc2c(c1)C(=O)/C(=C/c1c(-c3c(C)nn(CCOC)c3C)[nH]c3ccc(OC)cc13)O2` [Compound 709, 1-[(2Z)-2-({5-methoxy-2-[1-(2-methoxyethyl)-3,5-dimethyl-1H-pyrazol-4-yl]-1H-indol-3-yl}methylidene)-3-oxo-2,3-dihydro-1-benzofuran-5-yl]-3-methylurea], the figures for the IC50 on PI3K-gamma, at PI3K-alpha and on human TOR were 248 nM, 47 nM and 43 nM, respectively.
The matching figures for `COc1ccc2[nH]c(-c3c(C)nn(C)c3C)c(/C=C3\Oc4ccc(NC(=O)Nc5ccc(C(=O)NCCN(C)C)cc5)cc4C3=O)c2c1` [Compound 711, N-[2-(dimethylamino)ethyl]-4-({[(2Z)-2-{[5-methoxy-2-(1,3,5-trimethyl-1H-pyrazol-4-yl)-1H-indol-3-yl]methylidene}-3-oxo-2,3-dihydro-1-benzofuran-5-yl]carbamoyl}amino)benzamide]: 2.25 nM, 0.4 nM and under 1 nM.
Turning to `CNC(=O)Nc1ccc2c(c1)C(=O)/C(=C/c1c(-c3c(C)nn(C)c3C)[nH]c3c(OC)c(F)c(OC)cc13)O2` [Compound 712, 1-[(2Z)-2-{[6-fluoro-5,7-dimethoxy-2-(1,3,5-trimethyl-1H-pyrazol-4-yl)-1H-indol-3-yl]methylidene}-3-oxo-2,3-dihydro-1-benzofuran-5-yl]-3-methylurea], the half-inhibitory concentration (IC50) against PI3K-gamma stood at 246 nM; at PI3K-alpha it was 23 nM; at human TOR, 240 nM.
The matching figures for `CNC(=O)Nc1ccc2c(c1)C(=O)/C(=C/c1c(-c3c(C)nn(C)c3C)[nH]c3c(F)c(F)c(OC)cc13)O2` [Compound 713, 1-[(2Z)-2-{[6,7-difluoro-5-methoxy-2-(1,3,5-trimethyl-1H-pyrazol-4-yl)-1H-indol-3-yl]methylidene}-3-oxo-2,3-dihydro-1-benzofuran-5-yl]-3-methylurea]: 70.5 nM, 14 nM and 45 nM.
In the case of `CNC(=O)Nc1ccc2c(c1)C(=O)/C(=C/c1c(-c3c(C)n[nH]c3C)[nH]c3c(F)cc(OC)cc13)O2` [Compound 714, 1-[(2Z)-2-{[2-(3,5-dimethyl-1H-pyrazol-4-yl)-7-fluoro-5-methoxy-1H-indol-3-yl]methylidene}-3-oxo-2,3-dihydro-1-benzofuran-5-yl]-3-methylurea], the IC50 against PI3K-gamma is 3.7 nM; on PI3K-alpha, 0.55 nM; at human TOR, under 1 nM.
The matching figures for `COc1cc(F)c2[nH]c(-c3c(C)nn(C)c3C)c(/C=C3\Oc4ccc(NC(=O)NCCN)cc4C3=O)c2c1` [Compound 715, 1-(2-aminoethyl)-3-[(2Z)-2-{[7-fluoro-5-methoxy-2-(1,3,5-trimethyl-1H-pyrazol-4-yl)-1H-indol-3-yl]methylidene}-3-oxo-2,3-dihydro-1-benzofuran-5-yl]urea]: 2.55 nM, 0.5 nM and 1 nM.
The matching figures for `COc1cc(F)c2[nH]c(-c3c(C)nn(C)c3C)c(/C=C3\Oc4ccc(NC(=O)NCCN(C)C)cc4C3=O)c2c1` [Compound 716, 1-[2-(dimethylamino)ethyl]-3-[(2Z)-2-{[7-fluoro-5-methoxy-2-(1,3,5-trimethyl-1H-pyrazol-4-yl)-1H-indol-3-yl]methylidene}-3-oxo-2,3-dihydro-1-benzofuran-5-yl]urea]: 3.65 nM, 0.8 nM and 23 nM.
Take `CNC(=O)Nc1ccc2c(c1)C(=O)/C(=C/c1c(-c3cnn(CC(C)C)c3)[nH]c3c(F)cc(OC)cc13)O2` [Compound 717, 1-[(2Z)-2-({7-fluoro-5-methoxy-2-[1-(2-methylpropyl)-1H-pyrazol-4-yl]-1H-indol-3-yl}methylidene)-3-oxo-2,3-dihydro-1-benzofuran-5-yl]-3-methylurea]: the figures for the IC50 at PI3K-gamma, at PI3K-alpha and on human TOR were 8 nM, 2.65 nM and 7 nM, respectively.
For the molecule `CNC(=O)Nc1ccc2c(c1)C(=O)/C(=C/c1c(-c3cnn(C)c3)[nH]c3c(F)cc(OC)cc13)O2` [Compound 718, 1-[(2Z)-2-{[7-fluoro-5-methoxy-2-(1-methyl-1H-pyrazol-4-yl)-1H-indol-3-yl]methylidene}-3-oxo-2,3-dihydro-1-benzofuran-5-yl]-3-methylurea], the half-inhibitory concentration (IC50) was 9.5 nM against PI3K-gamma, 2.75 nM on PI3K-alpha and 2 nM on human TOR.
The matching figures for `CCn1c(C)c(/C=C2\Oc3ccc(NC(=O)Nc4ccc(CN(C)C)cc4)cc3C2=O)c2cc(OC)ccc21` [Compound 719, 1-{4-[(dimethylamino)methyl]phenyl}-3-{(2Z)-2-[(1-ethyl-5-methoxy-2-methyl-1H-indol-3-yl)methylidene]-3-oxo-2,3-dihydro-1-benzofuran-5-yl}urea]: 41.5 nM, 3.1 nM and 275 nM.
The matching figures for `COc1ccc2[nH]c(-c3c(C)nn(C)c3C)c(/C=C3\Oc4ccc(NC(=O)Nc5ccc(C(=O)N6CCS(=O)(=O)CC6)cc5)cc4C3=O)c2c1` [Compound 720, 1-{4-[(1,1-dioxidothiomorpholin-4-yl)carbonyl]phenyl}-3-[(2Z)-2-{[5-methoxy-2-(1,3,5-trimethyl-1H-pyrazol-4-yl)-1H-indol-3-yl]methylidene}-3-oxo-2,3-dihydro-1-benzofuran-5-yl]urea]: 1.75 nM, 0.4 nM and 2 nM.
Consider `COc1cc(F)c2[nH]c(-c3c(C)nn(C)c3C)c(/C=C3\Oc4ccc(NC(=O)Nc5ccc(C(=O)N6CCN(CCO)CC6)cc5)cc4C3=O)c2c1` [Compound 721, 1-[(2Z)-2-{[7-fluoro-5-methoxy-2-(1,3,5-trimethyl-1H-pyrazol-4-yl)-1H-indol-3-yl]methylidene}-3-oxo-2,3-dihydro-1-benzofuran-5-yl]-3-(4-{[4-(2-hydroxyethyl)piperazin-1-yl]carbonyl}phenyl)urea], for which the IC50 was found to be 2.25 nM against PI3K-gamma, 0.6 nM on PI3K-alpha and 1 nM at human TOR.
Take `CNC(=O)Nc1ccc2c(c1)C(=O)/C(=C/c1c(-c3cn(C)nc3C)[nH]c3ccc(OC)cc13)O2` [Compound 722, 1-[(2Z)-2-{[2-(1,3-dimethyl-1H-pyrazol-4-yl)-5-methoxy-1H-indol-3-yl]methylidene}-3-oxo-2,3-dihydro-1-benzofuran-5-yl]-3-methylurea]: the IC50 at PI3K-gamma was determined as 5 nM; on PI3K-alpha, 1.25 nM; at human TOR it was 2 nM.
The matching figures for `CNC(=O)Nc1ccc2c(c1)C(=O)/C(=C/c1c(-c3cnn(C)c3C)[nH]c3ccc(OC)cc13)O2` [Compound 723, 1-[(2Z)-2-{[2-(1,5-dimethyl-1H-pyrazol-4-yl)-5-methoxy-1H-indol-3-yl]methylidene}-3-oxo-2,3-dihydro-1-benzofuran-5-yl]-3-methylurea]: 4.1 nM, 1 nM and 3 nM.
